Assay results published in ChEMBL document CHEMBL1201862, “PubChem BioAssay data set” (2004).
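Growth conditions: 96-well plates. Treatment: test compound, 48 hours, 5 concentrations. Analysis: linear interpolation between bracketing concentrations; unreached endpoints set to highest concentration. Here, GI50 denotes the concentration required for 50% inhibition of growth.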 The source made the active and inactive calls. No stated cut-off is given here; in the data, active = GI50 up to about 1.1 µM and inactive = higher.

Legend:
Assay in all cases: DTP human tumour cell line panel, 48 h
786-0 = test system: 786-0
A549 = test system: A549
HT-29 = test system: HT-29
KM12 = test system: KM12
MCF7 = test system: MCF7
MOLT-4 = test system: MOLT-4
NCI-H23 = test system: NCI-H23
OVCAR-4 = test system: OVCAR-4
SF-295 = test system: SF-295
SK-MEL-28 = test system: SK-MEL-28
SK-MEL-2 = test system: SK-MEL-2
SK-OV-3 = test system: SK-OV-3
SN12C = test system: SN12C
SR = test system: SR
SW-620 = test system: SW-620
UACC-257 = test system: UACC-257
UO-31 = test system: UO-31

Measured: GI50

CC(C)(C)OC(=O)NC(Cc1ccccc1)C(=O)OCN1C(=O)C2C3C=CC(C2C1=O)C1C2C(=O)N(COC(=O)C(Cc4ccccc4)NC(=O)OC(C)(C)C)C(=O)C2C31 (stereo not given)
active: SR 0.176 µM
inactive: 786-0 28.2 µM | A549 8.28 µM | HT-29 12.9 µM | KM12 > 100 µM | MCF7 13.4 µM | MOLT-4 10 µM | NCI-H23 38.8 µM | OVCAR-4 37.1 µM | SF-295 34.4 µM | SK-MEL-28 34.6 µM | SK-MEL-2 29.8 µM | SK-OV-3 37.2 µM | SN12C 25.5 µM | SW-620 26.3 µM | UACC-257 > 56.4 µM | UO-31 19.5 µM

O=C(O)c1cccc2c1/C(=N/Nc1ccccc1)CC2
inactive: 786-0 > 100 µM | HT-29 > 100 µM | KM12 > 100 µM | MCF7 45.1 µM | MOLT-4 > 100 µM | NCI-H23 > 100 µM | OVCAR-4 > 100 µM | SF-295 17.2 µM | SK-MEL-28 > 100 µM | SK-MEL-2 66.8 µM | SK-OV-3 > 100 µM | SR > 100 µM | SW-620 > 100 µM | UACC-257 65.9 µM | UO-31 > 100 µM

O=C1/C(=C/c2cccc([N+](=O)[O-])c2)N=C(c2ccccc2)N1c1nc2c(Cl)cc(Cl)cc2s1
inactive: 786-0 31.4 µM | A549 21.1 µM | HT-29 19.1 µM | KM12 19.9 µM | MCF7 23.9 µM | MOLT-4 11.5 µM | OVCAR-4 24 µM | SF-295 33.6 µM | SK-MEL-28 40.7 µM | SK-MEL-2 21.4 µM | SK-OV-3 31.2 µM | SN12C 22.4 µM | SR 16.8 µM | SW-620 25.5 µM | UACC-257 30.1 µM | UO-31 21.8 µM

O=c1oc2ccc([N+](=O)[O-])cc2c(Nc2ccc3c(c2)Oc2ccccc2O3)c1[N+](=O)[O-]
inactive: 786-0 23.4 µM | A549 32.1 µM | HT-29 35.2 µM | KM12 31.9 µM | MCF7 26.5 µM | NCI-H23 25.1 µM | OVCAR-4 42 µM | SF-295 43.6 µM | SK-MEL-28 39.9 µM | SK-MEL-2 21.3 µM | SK-OV-3 41.4 µM | SN12C 32.3 µM | SR 31 µM | UACC-257 26.2 µM | UO-31 69.2 µM

CSCCC(NCc1c(O)ccc2ccc(=O)oc12)C(=O)O (stereo not given)
inactive: 786-0 > 100 µM | A549 > 100 µM | HT-29 > 100 µM | KM12 > 100 µM | MCF7 > 100 µM | MOLT-4 > 100 µM | NCI-H23 > 100 µM | OVCAR-4 > 100 µM | SF-295 > 100 µM | SK-MEL-28 > 100 µM | SK-MEL-2 > 100 µM | SK-OV-3 > 100 µM | SN12C > 100 µM | SR > 100 µM | SW-620 > 100 µM | UACC-257 > 100 µM | UO-31 > 100 µM

CC1=NN(C(=O)CSc2nc3ccc(I)cc3c(=O)n2Cc2ccccc2)C(=O)C1
inactive: 786-0 36.9 µM | A549 34 µM | HT-29 34.3 µM | KM12 28.3 µM | MCF7 22.8 µM | MOLT-4 24.4 µM | NCI-H23 16.1 µM | OVCAR-4 24.2 µM | SF-295 27.3 µM | SK-MEL-28 57.3 µM | SK-MEL-2 17.2 µM | SK-OV-3 29.1 µM | SN12C 29.3 µM | SR 16.9 µM | SW-620 46.5 µM | UACC-257 34 µM

CN(C)c1ccc(/C=C/C(=O)CC(=O)/C=C/c2ccc(N(C)C)cc2)cc1
inactive: 786-0 > 100 µM | A549 > 100 µM | HT-29 > 100 µM | KM12 > 100 µM | MCF7 > 100 µM | MOLT-4 > 100 µM | OVCAR-4 > 100 µM | SF-295 > 100 µM | SK-MEL-28 > 100 µM | SK-MEL-2 > 100 µM | SK-OV-3 > 100 µM | SN12C > 100 µM | SR 36.2 µM | SW-620 > 100 µM | UO-31 > 100 µM

CC1(C)C(=S)C(C)(C)C1=S
inactive: 786-0 > 100 µM | A549 > 100 µM | HT-29 > 100 µM | KM12 > 100 µM | MCF7 > 100 µM | MOLT-4 > 100 µM | NCI-H23 > 100 µM | OVCAR-4 > 100 µM | SK-MEL-28 > 100 µM | SK-MEL-2 > 100 µM | SK-OV-3 > 100 µM | SN12C > 100 µM | SR > 100 µM | SW-620 > 100 µM | UACC-257 > 100 µM | UO-31 > 100 µM

C#CC1(O)CCCCCCCCC2(CCCCCCCC1)OCCO2
active: UO-31 < 0.01 µM
inactive: 786-0 17.6 µM | A549 13.9 µM | HT-29 18.3 µM | KM12 18.6 µM | MCF7 20.3 µM | NCI-H23 16.8 µM | OVCAR-4 4.81 µM | SF-295 19.8 µM | SK-MEL-28 19.5 µM | SK-MEL-2 13.7 µM | SK-OV-3 18.7 µM | SN12C 17.4 µM | SR 12.3 µM | SW-620 18.8 µM | UACC-257 23.4 µM

Cc1ccc(-c2nc3cc(F)c(N4CCN(C)CC4)cc3[nH]2)cc1
inactive: 786-0 17.6 µM | A549 19.1 µM | KM12 14 µM | MCF7 15.3 µM | MOLT-4 22.8 µM | NCI-H23 22.2 µM | OVCAR-4 17.1 µM | SF-295 16.6 µM | SK-MEL-28 26.2 µM | SK-MEL-2 17.1 µM | SK-OV-3 23.4 µM | SN12C 54.1 µM | SR 32.6 µM | SW-620 37.1 µM | UACC-257 17.2 µM | UO-31 13.9 µM

CC1=NN(c2cccc(Cl)c2)C2(SCC(=O)N2c2nc3ccccc3s2)C1=CC=Cc1ccccc1 (stereo not given)
inactive: 786-0 35.2 µM | HT-29 30.1 µM | KM12 31.2 µM | MCF7 25.5 µM | MOLT-4 19.1 µM | NCI-H23 27 µM | OVCAR-4 37.8 µM | SF-295 35.2 µM | SK-MEL-28 34.4 µM | SK-MEL-2 21.7 µM | SK-OV-3 27.4 µM | SR 16.4 µM | SW-620 26.3 µM | UACC-257 36.9 µM | UO-31 23.6 µM

CN(C)CCNC1=Nc2ccccc2C(=O)N2CSCC12 (stereo not given)
inactive: 786-0 > 100 µM | A549 > 100 µM | HT-29 > 100 µM | KM12 > 100 µM | MCF7 > 100 µM | MOLT-4 > 100 µM | OVCAR-4 > 100 µM | SF-295 > 100 µM | SK-MEL-28 > 100 µM | SK-MEL-2 > 100 µM | SK-OV-3 > 100 µM | SN12C > 100 µM | SR > 100 µM | SW-620 > 100 µM | UACC-257 > 100 µM | UO-31 > 100 µM
